Experimental data published in patent US20250066769A1, “METHODS OF SCREENING AND TREATING FRAGILE X SYNDROME” (YISSUM RESEARCH DEVELOPMENT COMPANY OF THE HEBREW …, priority 2021, published 2025).

Key:
[1] = system: FMR1 expression in FXS-iPSCs; assay: RT-PCR analysis of FMR1 expression in FXS-iPSCs; format: cell-based, human; details: for FMR1 transcription levels (RT-PCR): lentiviral Cas9 and two sgRNAs per candidate gene, vs basal level
Excerpt: Cell lines: Throughout the study the following cell lines were used: The FXS-iPSCs cell line A52. Haploid hpESCs-hPES10. CSES7 and CSES9 hESCs and their derivatives were used as a reference for wild type expression. 293T cells were used for the construction of lentiviral constructs.
RNA isolation and reverse transcription: Total RNA was isolated using NucleoSpin RNA Plus kit (Macherey-Nagel) and reverse transcribed using the qScript® cDNA Synthesis Kit. Quantitative real time PCR (qRT-PCR) was performed using SYBR Green qPCR Supermix (Applied Biosystems) and analyzed with the 7300 real-time PCR system (Applied biosystems). FMR1 expression was assessed using specific primers, which amplified a 147 bp product spanning exons 5-6 of FMR1. GAPDH was used for normalization.
DNMT1 disruption assay: As human pluripotent stem cells require DNA methylation for their viability, heterogenous DNMT1-mutant populations of FXS-iPSCs were generated by infecting the cells with a lentiCRISPR v2 lentiviral vector containing an sgRNA that targets the open reading frame of DNMT1. The sgRNA sequence was cloned into the lentiCRISPR v2 plasmid and transformed into Stb13 chemically competent bacteria. Following plasmid isolation, 293T cells were transfected with sgRNA-containing lentiCRISPR V2, psPAX2, and pCMV-VSV-G plasmids at a ratio of 13.3:10:6.6, respectively, in the presence of polyethylenimine ‘Max’ (Polysciences). Lentiviral particle-containing supernatant was collected ˜65 hours after transfection and filtered using […] filters. For transduction, FXS-iPSCs were trypsinized, centrifuged, and suspended in embryonic stem cell media supplemented with 10 μM ROCK inhibitor (Y27632) and 8 μg/ml polybrene (Sigma). The viruses were added to the cell suspension, and the cells were plated on MEFs overnight. After ˜36 hours, the cells' medium was replaced with puromycin-containing medium ([…], Sigma). After 2-14 days selection with puromycin, cells were harvested for RNA extraction. To confirm DNMT1 mutagenesis in the transduced cells, qRT-PCR primers that were designed to have their 3′ ends around the Cas9 cut-site of DNMT1 were used to analyze the abundance of wild-type copies to DNMT1 transcripts.
Generation of gene knockouts: Ten candidate genes were targeted using a lentiviral construct containing Cas9 and a specific sgRNA (Table 2). Two sgRNAs were used to target each candidate gene. Each sgRNA sequence was inserted into a separate lentiCRISPR v2 vector (Addgene cat. No. 52961). As a control, a lentiCRISPR v2 vector without any sgRNA (empty vector) was used. Lentiviruses were produced using 293T cells cultured in 10 cm plates using transfection with the sgRNA-containing-lentiCRISPR v2 construct, psPAX2 (Addgene cat. No. 12260) and pCMV-VSV-G (Addgene cat. No. 8454) at a ratio of 5.32:4:2.64 ratio, in the presence of polyethylenimine “Max” (PEI-Max) (Polysciences) at a 1:2 ratio of DNA to PEI-Max. After 24 hours, the medium was exchanged with standard hESC medium, which was harvested 60-65 hours following transfection, centrifuged, and filtered through 0.45 μm cellulose acetate filters (Millipore). The filtered supernatant was frozen in aliquots at −70° C. For transduction, FXS-iPSCs or haploid human ESCs were trypsinized with TrypLE™ Select, centrifuged, and resuspended in hESC medium supplemented with 8 μg ml-1 polybrene (Sigma) and 10 μM ROCK inhibitor (Y27632). Thawed or fresh viruses were added to the cell suspension, followed by plating the cells on feeder layer MEFs. […]

[2] = system: methylated pFMR1-(240) CGG-EGFP construct in haploid hESCs; assay: methylated pFMR1-(240) CGG-EGFP reporter transfection in mutant haploid hESCs, flow cytometry; format: cell-based, human; details: Cas9 + two sgRNAs per gene, compared to Cas9 without sgRNA
Procedure: In vitro DNA methylation: pFMR1-n (CGG)-eGFP construct was methylated using an M.SssI CpG methyltransferase (NEB) according to manufacturer's recommendations. SAM concentration was adjusted to 640 μM. DNA was extracted using ethanol precipitation.
Library transfection: 10 μM ROCK inhibitor (Y27632) was added 1 hour prior to trypsinization and transfection. Library cells were harvested using TrypLE™ Select Enzyme solution (Thermo Fisher Scientific, Cat #12563029) in a single cell state. Following the first centrifugation, cells were re-suspended twice with DMEM/F12 and centrifuged again before incubation with the plasmid DNA. Transfection of the methylated pFMR1-CGG (240)-EGFP construct was performed using the Xtreme Gene9 reagent (Roche), using standard conditions. 48 hours following transfection, cells were washed with PBS, harvested using TrypLE™ Select, resuspended in PBS supplemented with 15% fetal bovine serum (FBS) and filtered through a 70-μm cell strainer (Corning) and sorted using BD FACDAria III. Transfection efficiency was assessed using the simultaneous transfection of control haploid hESCs with an unmethylated pFMR1-CGG (240)-EGFP construct.
Generation of gene knockouts: Ten candidate genes were targeted using a lentiviral construct containing Cas9 and a specific sgRNA (Table 2). Two sgRNAs were used to target each candidate gene. Each sgRNA sequence was inserted into a separate lentiCRISPR v2 vector (Addgene cat. No. 52961). As a control, a lentiCRISPR v2 vector without any sgRNA (empty vector) was used. Lentiviruses were produced using 293T cells cultured in 10 cm plates using transfection with the sgRNA-containing-lentiCRISPR v2 construct, psPAX2 (Addgene cat. No. 12260) and pCMV-VSV-G (Addgene cat. No. 8454) at a ratio of 5.32:4:2.64 ratio, in the presence of polyethylenimine “Max” (PEI-Max) (Polysciences) at a 1:2 ratio of DNA to PEI-Max. After 24 hours, the medium was exchanged with standard hESC medium, which was harvested 60-65 hours following transfection, centrifuged, and filtered through 0.45 μm cellulose acetate filters (Millipore). […]

Substance | FMR1 expression (RT-PCR) ([1]; lentiviral sgRNA + Cas9, collected 7-14 days after start of selection, vs control FXS-iPSCs) | FMR1 transcription levels (RT-PCR) [1] | methylated construct expression (relative GFP fluorescence) [2] | FMR1 expression (RT-PCR) ([1]; 5 μM, 4 days)
sgRNA targeting DNMT1: lentiCRISPR v2 vector with Cas9 and sgRNA GAGGCCAGAAGGAGGAACCG targeting DNMT1 (listed as Homo sapiens) | reactivation of FMR1 expression | – | – | –
ZNF217: lentiviral Cas9 constructs with two sgRNAs targeting ZNF217 (guide 1 GTGGTGAACGGATCGAGCTG; guide 2 TCTGGATGAAAATGGAGCCG; expressed or natural sequence; listed as Homo sapiens) | – | some increase above basal FMR1 transcription levels | highest levels of methylated construct expression | –
SMARCD1: lentiviral Cas9 constructs with two sgRNAs targeting SMARCD1 (guide 1 GGAGCCGGGCCCATTCGCAC; guide 2 GCCACTACCCAGGAGACCGA; expressed or natural sequence; listed as Homo sapiens) | – | some increase above basal FMR1 transcription levels | highest levels of methylated construct expression | –
C6orf57: lentiviral Cas9 constructs with two sgRNAs targeting C6orf57 (guide 1 GAGACCCAGCTAAGCAACCA; guide 2 TCCCAATCTCCATATCGGGT; expressed or natural sequence; listed as Homo sapiens) | – | some increase above basal FMR1 transcription levels | highest levels of methylated construct expression | –
5′-aza-2′-deoxycytidine [5-azadC, reference compound] | – | – | – | reactivation of FMR1 expression
